Source: patent US8952024B2, “Herbicidal pyrimidone derivatives” (E I du Pont de Nemours and Company, priority 2009, dated 2015)

What was measured:
Assay type in all cases: in vivo
[1] = test system: Surinam grass (Brachiaria decumbens); assay: Test B pre-/postemergence plant response; details: for Plant response rating, Surinam Grass: Postemergence
Text: (§1) Seeds of plant species selected from blackgrass (Alopecurus myosuroides), downy bromegrass (Bromus tectorum), green foxtail (Setaria viridis), Italian ryegrass (Lolium multiflorum), wheat (Triticum aestivum), wild oat (Avena fatua), deadnettle (henbit deadnettle, Lamium amplexicaule), galium (catchweed bedstraw, Galium aparine), bermudagrass (Cynodon dactylon), Surinam grass (Brachiaria decumbens), cocklebur (Xanthium strumarium), corn (Zea mays), large crabgrass (Digitaria sanguinalis), woolly cupgrass (Eriochloa villosa), giant foxtail (Setaria faberii), goosegrass (Eleusine indica), johnsongrass (Sorghum halepense), kochia (Kochia scoparia), lambsquarters (Chenopodium album), morningglory (Ipomoea coccinea), nightshade (eastern black nightshade, Solanum ptycanthum), yellow nutsedge (Cyperus esculentus), pigweed (Amaranthus retroflexus), ragweed (common ragweed, Ambrosia elatior), Russian thistle (Salsola kali), soybean (Glycine max), sunflower (common oilseed sunflower, Helianthus annuus) and velvetleaf (Abutilon theophrasti) were planted into a blend of loam soil and sand and treated preemergence with test compounds formulated in a non-phytotoxic solvent mixture which included a surfactant.
(§2) At the same time, plants selected from these crop and weed species and also winter barley (Hordeum vulgare), canarygrass (Phalaris minor), chickweed (Stellaria media) and windgrass (Apera spica-venti) were planted in pots containing Redi-Earth® planting medium (Scotts Company, 14111 Scottslawn Road, Marysville, Ohio 43041) comprising spaghnum peat moss, vermiculite, wetting agent and starter nutrients and treated with postemergence applications of some of the test chemicals formulated in the same manner. Plants ranged in height from 2 to 18 cm (1- to 4-leaf stage) for postemergence treatments.
(§3) Treated plants and controls were maintained in a greenhouse for 13 to 15 days, after which time all treated plants were visually evaluated and compared to controls. Plant response ratings, summarized in Table B, are based on a scale of 0 to 100 where 0 is no effect and 100 is complete control. A dash (-) response means no test result.

[2] = test system: blackgrass (Alopecurus myosuroides); assay: Test B pre-/postemergence plant response; details: for Plant response rating, Blackgrass: Postemergence
Text: as §1, §2, §3

corn (Zea mays) = assay: Test B pre-/postemergence plant response; details: for Plant response rating, Corn: Postemergence
Text: as §1, §2, §3

[3] = test system: pigweed (Amaranthus retroflexus); assay: Test B pre-/postemergence plant response; details: for Plant response rating, Pigweed: Postemergence
Text: as §1, §2, §3

[4] = test system: morningglory (Ipomoea coccinea); assay: Test B pre-/postemergence plant response; details: for Plant response rating, Morningglory: Postemergence
Text: as §1, §2, §3

[5] = test system: giant foxtail (Setaria faberii); assay: Test B pre-/postemergence plant response; details: for Plant response rating, Foxtail, Giant: Postemergence
Text: as §1, §2, §3

[6] = test system: downy bromegrass (Bromus tectorum); assay: Test B pre-/postemergence plant response; details: for Plant response rating, Bromegrass, Downy: Postemergence
Text: as §1, §2, §3

wild oat (Avena fatua) = assay: Test B pre-/postemergence plant response; details: for Plant response rating, Oat, Wild: Postemergence
Text: as §1, §2, §3

[7] = test system: Italian ryegrass (Lolium multiflorum); assay: Test B pre-/postemergence plant response; details: for Plant response rating, Ryegrass, Italian: Postemergence
Text: as §1, §2, §3

[8] = test system: cocklebur (Xanthium strumarium); assay: Test B pre-/postemergence plant response; details: for Plant response rating, Cocklebur: Postemergence
Text: as §1, §2, §3

[9] = test system: windgrass (Apera spica-venti); assay: Test B postemergence plant response; details: for Plant response rating, Windgrass: Postemergence
Procedure, shortened: (§4)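 Plants grown in peat/vermiculite medium were sprayed postemergence at 2–18 cm height (1- to 4-leaf stage). After 13–15 days in the greenhouse, response was rated visually against untreated controls on a 0–100 scale (0 no effect, 100 complete control).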

[10] = test system: canarygrass (Phalaris minor); assay: Test B postemergence plant response; details: for Plant response rating, Canarygrass: Postemergence
Procedure, shortened: as §4

[11] = test system: chickweed (Stellaria media); assay: Test B postemergence plant response; details: for Plant response rating, Chickweed: Postemergence
Procedure, shortened: as §4

[12] = 62 g ai/ha, postemergence, 0 is no effect, 100 is complete control, 13 to 15 days
[13] = 31 g ai/ha, 0 to 100 scale (0 no effect, 100 complete control)
[14] = 125 g ai/ha, scale 0 to 100 (0 no effect, 100 complete control)
[15] = 250 g ai/ha, scale 0 to 100 (0 no effect, 100 complete control), 13 to 15 days

COCCCn1c(-c2cccc(Br)c2)ncc(C(=O)C2=C(O)CCCC2=O)c1=O [Compound 140]
Surinam Grass plant response rating (0 to 100 scale) [1, 12]: 50 | Plant response rating, Surinam Grass [1, 13]: 50 | Plant response rating, Surinam Grass [1, 14]: 55 | Plant response rating, Surinam Grass [1, 15]: 65 | Blackgrass plant response rating (0 to 100 scale) [2, 12]: 0 | Plant response rating, Blackgrass [2, 13]: 0 | Plant response rating, Blackgrass [2, 14]: 5 | Plant response rating, Blackgrass [2, 15]: 5 | Corn plant response rating (0 to 100 scale) (corn (Zea mays); [12]): 5 | Plant response rating, Corn (corn (Zea mays); [13]): 0 | Plant response rating, Corn (corn (Zea mays); [14]): 25 | Plant response rating, Corn (corn (Zea mays); [15]): 45 | Pigweed plant response rating (0 to 100 scale) [3, 12]: 70 | Plant response rating, Pigweed [3, 13]: 55 | Plant response rating, Pigweed [3, 14]: 75 | Plant response rating, Pigweed [3, 15]: 98 | Morningglory plant response rating (0 to 100 scale) [4, 12]: 60 | Plant response rating, Morningglory [4, 13]: 0 | Plant response rating, Morningglory [4, 14]: 65 | Plant response rating, Morningglory [4, 15]: 65 | Foxtail, Giant plant response rating (0 to 100 scale) [5, 12]: 75 | Plant response rating, Foxtail, Giant [5, 13]: 65 | Plant response rating, Foxtail, Giant [5, 14]: 80 | Plant response rating, Foxtail, Giant [5, 15]: 90 | Bromegrass, Downy plant response rating (0 to 100 scale) [6, 12]: 5 | Plant response rating, Bromegrass, Downy [6, 13]: 0 | Plant response rating, Bromegrass, Downy [6, 14]: 5 | Plant response rating, Bromegrass, Downy [6, 15]: 20 | Oat, Wild plant response rating (0 to 100 scale) (wild oat (Avena fatua); [12]): 5 | Plant response rating, Oat, Wild (wild oat (Avena fatua); [13]): 0 | Plant response rating, Oat, Wild (wild oat (Avena fatua); [14]): 10 | Plant response rating, Oat, Wild (wild oat (Avena fatua); [15]): 40 | Ryegrass, Italian plant response rating (0 to 100 scale) [7, 12]: 0 | Plant response rating, Ryegrass, Italian [7, 13]: 0 | Plant response rating, Ryegrass, Italian [7, 14]: 0 | Plant response rating, Ryegrass, Italian [7, 15]: 5 | Cocklebur plant response rating (0 to 100 scale) [8, 12]: 15 | Plant response rating, Cocklebur [8, 13]: 0 | Plant response rating, Cocklebur [8, 14]: 65 | Plant response rating, Cocklebur [8, 15]: 95 | Windgrass plant response rating (0 to 100 scale) [9, 12]: 5 | Plant response rating, Windgrass [9, 13]: 0 | Plant response rating, Windgrass [9, 14]: 5 | Plant response rating, Windgrass [9, 15]: 30 | Canarygrass plant response rating (0 to 100 scale) [10, 12]: 0 | Plant response rating, Canarygrass [10, 13]: 0 | Plant response rating, Canarygrass [10, 14]: 5 | Plant response rating, Canarygrass [10, 15]: 5 | Chickweed plant response rating (0 to 100 scale) [11, 12]: 10 | Plant response rating, Chickweed [11, 13]: 0 | Plant response rating, Chickweed [11, 14]: 45 | Plant response rating, Chickweed [11, 15]: 75
